Data: PubChem BioAssay (NCI)
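Grown in 96-well plates, cells were treated for 48 hours with each compound at five concentrations. Insufficient inhibition: endpoint recorded as highest concentration tested. GI50: concentration for 50% inhibition of growth. TGI denotes the concentration required for complete inhibition of growth.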

How the values were obtained:
Assay in all cases: growth of human tumour cells (NCI), 48 h
[1] = test system: SNB-19 CNS
[2] = test system: BT-549 breast
[3] = test system: PC-3 prostate
[4] = test system: UACC-62 melanoma
[5] = test system: NCI-H460 lung
[6] = test system: MDA-MB-435
[7] = test system: SF-295 CNS
[8] = test system: HS 578T breast
[9] = test system: OVCAR-5 ovarian
[10] = test system: ACHN renal

## Cc1cc(C)nc(SC2=C(Nc3cc(Cl)ccc3O)C(=O)N(Cc3ccccc3)C2=O)n1
[1]
  GI50: > 160 µM
  TGI: > 160 µM
[2]
  GI50: 63 µM
  TGI: > 160 µM
[3]
  GI50: 19.9 µM
  TGI: 86.4 µM
[4]
  GI50: 16.2 µM
  TGI: 41.8 µM
[5]
  GI50: 56.6 µM
  TGI: > 160 µM
[6]
  GI50: 62.2 µM
  TGI: > 160 µM
[7]
  GI50: 36.8 µM
  TGI: > 160 µM
[8]
  GI50: 28.1 µM
  TGI: 87.5 µM
[9]
  GI50: > 160 µM
  TGI: > 160 µM
[10]
  GI50: 43.5 µM
  TGI: > 160 µM

## CCc1cccc(C)c1NC(=O)c1sc2nc3c(cc2c1N)C(=O)CCC3
[1]
  GI50: 0.918 µM
  TGI: > 100 µM
[2]
  GI50: 8.58 µM
  TGI: > 100 µM
[3]
  GI50: 0.454 µM
  TGI: > 100 µM
[4]
  GI50: 0.556 µM
  TGI: > 100 µM
[5]
  GI50: 0.371 µM
  TGI: 14 µM
[6]
  GI50: 0.159 µM
[7]
  GI50: 0.299 µM
  TGI: > 100 µM
[8]
  GI50: 2.57 µM
  TGI: > 100 µM
[9]
  GI50: 2.74 µM
  TGI: > 100 µM
[10]
  GI50: 0.872 µM
  TGI: > 100 µM

## CCCCCCNC(=O)Oc1ccc(/C(=C(\C)c2ccc(Cl)cc2)c2ccc(OCCN3CCCCC3)cc2)cc1
[1]
  GI50: 6.37 µM
  TGI: 28.9 µM
[2]
  GI50: 3.61 µM
  TGI: 8.12 µM
[3]
  GI50: 2.23 µM
  TGI: 14.1 µM
[4]
  GI50: 4.03 µM
  TGI: 8.59 µM
[5]
  GI50: 1.57 µM
  TGI: 5.46 µM
[6]
  GI50: 3.73 µM
  TGI: 7.98 µM
[7]
  GI50: 4.79 µM
  TGI: 9.62 µM
[8]
  GI50: 4.22 µM
  TGI: 11.6 µM
[9]
  GI50: 5.03 µM
  TGI: 16 µM
[10]
  GI50: 4.87 µM
  TGI: 9.55 µM

## OC(C#Cc1ccccc1)(c1ccccc1)c1ccccc1
[1]
  TGI: > 100 µM
[2]
  TGI: > 100 µM
[3]
  TGI: > 100 µM
[4]
  TGI: > 100 µM
[5]
  TGI: 50.6 µM
[6]
  TGI: 56.3 µM
[7]
  TGI: 77.7 µM
[8]
  TGI: > 100 µM
[9]
  TGI: > 100 µM
[10]
  TGI: > 100 µM

## c1ccc2cc(-c3n(Cc4ccc5ccccc5n4)c4ccccc4[n+]3Cc3ccc4ccccc4n3)ccc2c1
[1]
  GI50: 0.315 µM
  TGI: 1.32 µM
[2]
  GI50: 0.316 µM
  TGI: 1.25 µM
[3]
  GI50: 0.184 µM
  TGI: 1.12 µM
[4]
  GI50: 0.339 µM
  TGI: 1.32 µM
[5]
  GI50: 0.361 µM
  TGI: 1.31 µM
[6]
  GI50: 0.369 µM
  TGI: 1.35 µM
[7]
  GI50: 0.301 µM
  TGI: 1.09 µM
[8]
  GI50: 0.343 µM
  TGI: 1.7 µM
[9]
  GI50: 0.368 µM
  TGI: 1.47 µM
[10]
  GI50: 0.717 µM
  TGI: 1.95 µM

## Cc1cc(N(CCCNc2ccnc3cc(Cl)ccc23)Cc2ccco2)nc(N2CCN(C)CC2)n1
[1]
  GI50: 5 µM
  TGI: 16.9 µM
[2]
  GI50: 2.07 µM
  TGI: 6.05 µM
[3]
  GI50: 4.12 µM
  TGI: 17.3 µM
[4]
  GI50: 1.99 µM
  TGI: 3.74 µM
[5]
  GI50: 3.12 µM
  TGI: 11.4 µM
[6]
  GI50: 1.69 µM
  TGI: 3.23 µM
[7]
  GI50: 1.87 µM
  TGI: 3.84 µM
[8]
  GI50: 2.43 µM
  TGI: 7.85 µM
[9]
  GI50: 6.08 µM
  TGI: 21.8 µM
[10]
  GI50: 2.46 µM
  TGI: 6.51 µM

## O=[N+]([O-])c1ccc(N2CCOCC2)c2c1no[n+]2[O-]
[1]
  GI50: 3.74 µM
  TGI: 16.4 µM
[2]
  GI50: 1.64 µM
  TGI: 6.25 µM
[3]
  GI50: 1.25 µM
  TGI: 5.53 µM
[4]
  GI50: 1.21 µM
  TGI: 3.87 µM
[5]
  GI50: 0.601 µM
  TGI: 2.07 µM
[6]
  GI50: 2.15 µM
  TGI: 7.35 µM
[7]
  GI50: 1.08 µM
  TGI: 4.67 µM
[8]
  GI50: 1.15 µM
  TGI: 4.17 µM
[9]
  GI50: 3.28 µM
  TGI: 13.4 µM
[10]
  GI50: 0.528 µM
  TGI: 3.15 µM
